Publication PMC9266797 (2022)

Assays:
[1] = tested on: poly A–poly U (RNA, polymer) A/U; assay: UV melting at 260 nm; conditions: Na+ (sodium cacodylate, I = 0.05 M); pH 7.0; RNA 25 µM, r = 0.25; no Cu2+; per base
[2] = tested on: poly dAdT–poly dAdT (DNA, polymer) AT; assay: UV melting at 260 nm; conditions: Na+ (sodium cacodylate, I = 0.05 M); pH 7.0; DNA 25 µM; no Cu2+; per base
[3] = tested on: poly A–poly U (RNA, polymer) A/U; assay: fluorimetric titration, Scatchard fit; conditions: Na+ (sodium cacodylate, I = 0.05 M), n fixed at 0.2 per nucleobase, per base
[4] = tested on: poly dAdT–poly dAdT (DNA, polymer) AT; assay: DAPI displacement by CD (ICD at 375 nm); conditions: Na+ (sodium cacodylate, I = 0.05 M), pH 7.0, DAPI displaced; for IDA50%: ratio [DAPI]/[compound], range printed for 6 and 7 together
[5] = tested on: poly dAdT–poly dAdT (DNA, polymer) AT; assay: CD (induced band at 375 nm); conditions: Na+ (sodium cacodylate, I = 0.05 M); pH 7.0; DNA 20 µM, r[DAPI]/[DNA] = 0.6

SMILES	∆Tm [1]	∆Tm [2]	log Ks ([3]; pH 7.0, 0.04% DMSO, 1 µM compound)	IDA50% [4]	log Ks ([3]; pH 7.0)	binding ([4]; very weakly)	binding [5]
COC(=O)[C@H](Cc1c[nH]c2ccccc12)NC(=O)C(Cc1cn(COC(=O)C(C)(C)C)nn1)NC(=O)CCCc1ccc2ccc3cccc4ccc1c2c34 (stereo partly shown)	0 ± 0.5 °C	0 ± 0.5 °C	6.8	0.02–0.01	–	–	–
COC(=O)[C@H](Cc1c[nH]c2ccccc12)NC(=O)C(Cc1cn(COC(=O)C(C)(C)C)nn1)NC(=O)c1ccc2ccc3cccc4ccc1c2c34 (stereo partly shown)	0 ± 0.5 °C	–	–	0.02–0.01	6.6	–	–
COC(=O)[C@H](Cc1c[nH]c2ccccc12)NC(=O)C(Cc1cn(COC(=O)C(C)(C)C)nn1)NC(=O)[C@@H](N)Cc1c[nH]c2ccccc12 (stereo partly shown)	0 ± 0.5 °C	–	–	–	–	weak	–
N=C(N)c1ccc(-c2cc3ccc(C(=N)N)cc3[nH]2)cc1	–	–	–	–	–	–	yes
